Several values for one entry are separate records, joined by “and”; a condition that tells them apart may be missing. Identical values can stand only once. Inconclusive results are not listed.
System: BDF1 mice, B16 melanoma s.c., survival/tumor T/C
Assay: NCI In Vivo Anticancer Drug Screen. Data for tumor model B16 Melanoma (subcutaneous) in B6D2F1 (BDF1) mice
Protocol: The antitumor activity of compounds was measured in mice bearing transplantable tumors. Survival or tumor size were measured and the results are expressed as the measurement made in the treated group (T) divided by the measurement made in the vehicle treated control group (C). The tumor model used in this assay is B16 Melanoma (subcutaneous) in B6D2F1 (BDF1) mice

[1] = endpoint: median survival time, dose: 0.75 mg/kg/injection, schedule: Q01DX009 (ip), vehicle: saline, higher = longer survival
[2] = endpoint: median survival time, dose: 3.0 mg/kg/injection, schedule: Q01DX009 (ip), vehicle: saline, higher = longer survival

Compound: COc1cccc2c1C(=O)c1c(O)c3c(c(O)c1C2=O)CC(O)(C(=O)CO)CC3OC1CC(N)C(O)C(C)O1 (stereo not given)
- T/C (endpoint: median survival time, dose: 2.9 mg/kg/injection, schedule: Q01DX009 (ip), vehicle: saline, higher = longer survival): 103 % of control
- T/C (endpoint: median survival time, dose: 5.8 mg/kg/injection, schedule: Q01DX009 (ip), vehicle: saline, higher = longer survival): 107 % of control

Compound: NC(=O)c1ccc[n+](Cc2c(Cl)cccc2Cl)c1
- T/C [1]: 106 % of control
- T/C [2]: 98 % of control
- T/C (endpoint: median survival time, dose: 6.0 mg/kg/injection, schedule: Q01DX009 (ip), vehicle: saline, higher = longer survival): 102 % of control and 117 % of control
- T/C (endpoint: median survival time, dose: 12.0 mg/kg/injection, schedule: Q01DX009 (ip), vehicle: saline, higher = longer survival): 106 % of control and 114 % of control

Compound: Nc1ccc(N(CCCl)CCN(CCCl)c2ccc(N)cc2)cc1
- T/C (endpoint: median survival time, dose: 0.36 mg/kg/injection, schedule: Q01DX009 (ip), vehicle: saline, higher = longer survival): 124 % of control
- T/C [1]: 114 % of control
- T/C (endpoint: median survival time, dose: 1.5 mg/kg/injection, schedule: Q01DX009 (ip), vehicle: saline, higher = longer survival): 103 % of control
- T/C [2]: 98 % of control

Compound: Nc1n[nH]c(N)n1
- T/C (endpoint: median survival time, dose: 100.0 mg/kg/injection, schedule: Q01DX009 (ip), vehicle: saline with Tween-80, higher = longer survival): 93 % of control
- T/C (endpoint: median survival time, dose: 400.0 mg/kg/injection, schedule: Q01DX009 (ip), vehicle: saline with Tween-80, higher = longer survival): 97 % of control
- T/C (endpoint: median survival time, dose: 800.0 mg/kg/injection, schedule: Q01DX009 (ip), vehicle: saline with Tween-80, higher = longer survival): 97 % of control
- T/C (endpoint: median tumor weight (est.), dose: 100.0 mg/kg/injection, schedule: Q01DX009 (ip), vehicle: saline with Tween-80, higher = larger tumour): 100 % of control
- T/C (endpoint: median tumor weight (est.), dose: 800.0 mg/kg/injection, schedule: Q01DX009 (ip), vehicle: saline with Tween-80, higher = larger tumour): 154 % of control

Compound: S=P(N1CC1)(N1CC1)N1CC1
- T/C (endpoint: median survival time, dose: 1.0 mg/kg/injection, schedule: Q01DX001 (oral), vehicle: saline, higher = longer survival): 97 % of control
- T/C (endpoint: median survival time, dose: 1.0 mg/kg/injection, schedule: Q02DX009 (ip), vehicle: saline, higher = longer survival): 109 % of control and 113 % of control
- T/C (endpoint: median survival time, dose: 2.0 mg/kg/injection, schedule: Q01DX001 (oral), vehicle: saline, higher = longer survival): 89 % of control
- T/C (endpoint: median survival time, dose: 2.0 mg/kg/injection, schedule: Q01DX009 (ip), vehicle: saline, higher = longer survival): 106 % of control
- T/C (endpoint: median survival time, dose: 2.0 mg/kg/injection, schedule: Q02DX009 (ip), vehicle: saline, higher = longer survival): 99 % of control and 202 % of control
- T/C (endpoint: median survival time, dose: 4.0 mg/kg/injection, schedule: Q01DX001 (oral), vehicle: saline, higher = longer survival): 98 % of control
- T/C (endpoint: median survival time, dose: 8.0 mg/kg/injection, schedule: Q01DX001 (oral), vehicle: saline, higher = longer survival): 100 % of control
- T/C (endpoint: median survival time, dose: 8.0 mg/kg/injection, schedule: Q02DX009 (ip), vehicle: saline, higher = longer survival): 98 % of control
- T/C (endpoint: median survival time, dose: 12.5 mg/kg/injection, schedule: Q01DX001 (ip), vehicle: saline, higher = longer survival): 105 % of control
- T/C (endpoint: median survival time, dose: 16.0 mg/kg/injection, schedule: Q01DX001 (oral), vehicle: saline, higher = longer survival): 100 % of control

Compound: CC(C)(C)c1ccc(CN2CCN(C(c3ccccc3)c3ccc(Cl)cc3)CC2)cc1 (stereo not given)
- T/C (endpoint: median survival time, dose: 22.5 micrograms/kg/injection, schedule: Q01DX009 (ip), vehicle: Klucel (hydroxypropylcellulose) (HPC), higher = longer survival): 91 % of control
- T/C (endpoint: median survival time, dose: 45.0 micrograms/kg/injection, schedule: Q01DX009 (ip), vehicle: Klucel (hydroxypropylcellulose) (HPC), higher = longer survival): 88 % of control

Compound: C[n+]1c(/C=C\C=C\N2CCCCC2)sc2ccccc21
- T/C (endpoint: median survival time, dose: 0.01 mg/kg/injection, schedule: Q01DX009 (ip), vehicle: Klucel (hydroxypropylcellulose) (HPC), higher = longer survival): 188 % of control
- T/C (endpoint: median survival time, dose: 0.02 mg/kg/injection, schedule: Q01DX009 (ip), vehicle: Klucel (hydroxypropylcellulose) (HPC), higher = longer survival): 170 % of control
- T/C (endpoint: median survival time, dose: 0.05 mg/kg/injection, schedule: Q01DX009 (ip), vehicle: Klucel (hydroxypropylcellulose) (HPC), higher = longer survival): 160 % of control
- T/C (endpoint: median survival time, dose: 0.1 mg/kg/injection, schedule: Q01DX009 (ip), vehicle: Klucel (hydroxypropylcellulose) (HPC), higher = longer survival): 171 % of control
- T/C (endpoint: median survival time, dose: 0.4 mg/kg/injection, schedule: Q01DX009 (ip), vehicle: Klucel (hydroxypropylcellulose) (HPC), higher = longer survival): 121 % of control

Compound: O=C(O)CCCc1ccc(N(CCCl)CCCl)cc1
- T/C (endpoint: median survival time, dose: 1.5 mg/kg/injection, schedule: Q01DX009 (ip), vehicle: Klucel (hydroxypropylcellulose) (HPC), higher = longer survival): 111 % of control
- T/C (endpoint: median survival time, dose: 3.0 mg/kg/injection, schedule: Q01DX009 (ip), vehicle: Klucel (hydroxypropylcellulose) (HPC), higher = longer survival): 105 % of control
- T/C (endpoint: median survival time, dose: 4.0 mg/kg/injection, schedule: Q01DX009 (ip), vehicle: Klucel (hydroxypropylcellulose) (HPC), higher = longer survival): 121 % of control
- T/C (endpoint: median survival time, dose: 6.0 mg/kg/injection, schedule: Q01DX009 (ip), vehicle: Klucel (hydroxypropylcellulose) (HPC), higher = longer survival): 101 % of control
- T/C (endpoint: median survival time, dose: 8.0 mg/kg/injection, schedule: Q01DX009 (ip), vehicle: Klucel (hydroxypropylcellulose) (HPC), higher = longer survival): 102 % of control
- T/C (endpoint: median survival time, dose: 12.0 mg/kg/injection, schedule: Q01DX009 (ip), vehicle: Klucel (hydroxypropylcellulose) (HPC), higher = longer survival): 97 % of control
- T/C (endpoint: median tumor weight (est.), dose: 4.0 mg/kg/injection, schedule: Q01DX009 (ip), vehicle: saline with Tween-80, higher = larger tumour): 61 % of control
- T/C (endpoint: median tumor weight (est.), dose: 8.0 mg/kg/injection, schedule: Q01DX009 (ip), vehicle: saline with Tween-80, higher = larger tumour): 25 % of control

From PubChem BioAssay AID194 (DTP/NCI, 2004)
